Source: patent US20040014729A1, “Use of estramustine phosphate in the treatment of bone metastasis” (priority 2003, published 2004)
“Also recorded” adds a separate entry of the source.

How the values were obtained:
mouse calvaria = assay: Bone resorption assay, organ culture with 45Ca-prelabeled mouse calvaria (PTH-stimulated 45Ca release); assay type: cell-based; details: for bone resorption in vitro (in words): compound present during culture
Description: This example used the organ culture technique with mouse calvaria.
The organ culture technique was used with ^45Ca-prelabeled mouse calvaria. The method has been described by Lerner (1987) and Ljunggren et al. (1991). Newborn mice were injected subcutaneously with ^45CaCl (1.5 μCi/animal). After four days their calvaria were dissected, split into quarters and preincubated in phenol red free CMRL 1066 medium supplemented with 0.1% bovine serum albumin and 50 μg/ml gentamicin for 24 hours at 37° C. in a humidified atmosphere of 5% CO2 in air in the presence of indomethacin (1 μmol/l) and 10 nmol/l bovine parathyroid hormone (PTH). After washing the bone pieces, the medium was changed and cultures incubated for three more days in the same medium but without indomethacin in the presence or absence of estramustine phosphate or clodronate. Resorption was measured by assaying the ^45Ca liberated into the medium using a standard technique for liquid scintillation counting. Total ^45Ca was determined after hydrolysing the calvaria in 6 mol/l HCI overnight. Bone resorption was studied in various concentrations of estramustine phosphate and the effect of estramusine phosphate present only during the preincubation stage was checked in order to study its cytotoxcity.
Results are expressed as mean ±SEM, n=5 or 10. Inhibition percentage was calculated as follows [formula]

[1] = Effect of estramustine phosphate and clodronate on their mutual bioavailability (serum AUC0-24h, Cmax, serum estradiol) in patients
Description: Twelve male patients aged 62-80 were divided into two groups of six patients.
The first group of six patients were given 3200 mg daily of clodronate only for four days. On the fifth day the AUC0-24 h for the drug was calculated from serum concentrations of repeated blood samples. On the sixth day, 560 mg estramustine phosphate was add per oral to the clodronate treatment for the following four days. On day ten, the AUC0-24 h for both drugs was calculated.
The second group of six patients were give orally 560 mg daily of estramustine phosphate only for four days. On the fifth day the AUC0-24 h for the drug was calculated from serum concentrations of repeated blood samples. On the sixth day, 3200 mg clodronate was added to the estramustine phosphate treatment for the following four days. On day ten, the AUC0-24 h for both drugs was calculated.
The clodronate was provided as 400 mg capsules, and the estramustine phosphate used was estracyt in 140 mg capsules.
The method used in the analysis of the serum estramustine phosphate concentrations measures […] and is insensitive to any metabolites. The estradiol-related metabolites (estramustine and estradiol) were not analyized in connection with the bioanalysis. […] Unfortunately, estradiol was not measured after administration of estramustine phosphate alone.

[2] = present only during preincubation, then washed away, concentration not given

| AUC0-24h and Cmax, alone versus concomitantly with the other drug (in words) ([1]; human, in vivo, po) | bioavailability when the other drug is added (in words) ([1]; human, in vivo, po) | AUC0-24h Clodronate ([1]; male, human, in vivo, 3200 mg) | Compound | resorption, compound present only during preincubation (in words) (mouse calvaria; [2]) | resorption, compound present only during preincubation (in words) (mouse calvaria; 10 μmol/l) | resorption, compound present only during preincubation (in words) (mouse calvaria; 100 μmol/l) | observation in culture medium (mouse calvaria; Experiment 1, 1000 μmol/l) | bone resorption in vitro (in words) (mouse calvaria) | bone resorption in vitro (in words) (mouse calvaria; listed as estramustine phosphate sodium) | AUC0-24h and Cmax, alone versus concomitantly with the other drug (in words) ([1]; patients, oral) | bioavailability when the other drug is added (in words) ([1]; patients, oral) |
| --- | --- | --- | --- | --- | --- | --- | --- | --- | --- | --- | --- |
| did not differ significantly | no effect | 19300 ng·h/mL | O=P(O)(O)C(Cl)(Cl)P(=O)(O)O [Clodronate, Disodium clodronate] | also inhibits resorption | – | – | – | – | – | – | – |
| – | – | – | C[C@]12CC[C@@H]3c4ccc(OC(=O)N(CCCl)CCCl)cc4CC[C@H]3[C@@H]1CC[C@@H]2OP(=O)([O-])[O-].[Na+].[Na+] [Estramustine phosphate, Estramustine phosphate sodium] | PTH could not stimulate | slightly increased | strongly inhibited | (precipitate) | inhibited bone resorption in this in vitro model concentration-dependently and about as effectively as clodronate | dose-dependently inhibited; also recorded: inhibits bone resorption in vitro | differed statistically | almost doubled |
